Reference: US8759535B2, “Substituted fused imidazole derivatives, pharmaceutical compositions, and methods of use thereof” (High Point Pharmaceuticals, LLC, priority 2010, dated 2014)
Counter-ions that a name gives are not always drawn.

System: HMOX1
Assay: HMOX1 Protein Assay (immunostaining of HO-1 in NHLF cells, GE InCell 1000)
Type: cell-based
Conditions: Homo sapiens, fold change above DMSO treated cells, 3 μM compound (asterisk), 16 h
Summary of the method: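 Fold induction of HO-1 over vehicle, normally at 5 μM compound (asterisk marks 3 μM), in 0.8% DMSO medium. Normal human lung fibroblasts were treated 16 h, then paraformaldehyde-fixed, anti-HO-1/Alexa 488 stained with Hoechst, and read by high-content imaging.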

First: CCN(CC)CCCNC(=O)c1ccc2c(c1)nc(Nc1nc3ccc(Cl)cc3s1)n2C [Example 352, 2-(6-Chloro-benzothiazol-2-ylamino)-1-methyl-1H-benzoimidazole-5-carboxylic acid (3-diethylamino-propyl)-amide]
Second: Cn1c(Nc2nc3ccc(Cl)cc3s2)nc2cc(C(=O)NCCCCCO)ccc21 [Example 227, 2-(6-Chloro-benzothiazol-2-ylamino)-1-methyl-1H-benzoimidazole-5-carboxylic acid (5-hydroxy-pentyl)-amide]
The fold induction at 3 µM of the first is higher: 20 for the first, 14 for the second.

First: CCS(=O)(=O)CCNC(=O)c1ccc2c(c1)nc(Nc1nc3ccc(Cl)cc3s1)n2C [Example 277, 2-(6-Chloro-benzothiazol-2-ylamino)-1-methyl-1H-benzoimidazole-5-carboxylic acid (2-ethanesulfonyl-ethyl)-amide]
Second: CN(C)C(=O)CCNC(=O)c1ccc2c(c1)nc(Nc1nc3ccc(Cl)cc3s1)n2C [Example 371, 2-(6-Chloro-benzothiazol-2-ylamino)-1-methyl-1H-benzoimidazole-5-carboxylic acid (2-dimethylcarbamoyl-ethyl)-amide]
The fold induction at 3 µM of the first is higher: 38.3 for the first, 29 for the second.

Going from CN(C)CCCNC(=O)c1ccc2c(c1)nc(Nc1nc3ccc(C(F)(F)F)cc3s1)n2C [Example 350, 1-Methyl-2-(6-trifluoromethyl-benzothiazol-2-ylamino)-1H-benzoimidazole-5-carboxylic acid (3-dimethylamino-propyl)-amide] to C[C@H](NC(=O)c1ccc2c(c1)nc(Nc1nc3ccc(C(F)(F)F)cc3s1)n2C)C(=O)N1CCOCC1 [Example 466, 1-Methyl-2-(6-trifluoromethyl-benzothiazol-2-ylamino)-1H-benzoimidazole-5-carboxylic acid ((S)-1-methyl-2-morpholin-4-yl-2-oxo-ethyl)-amide], the fold induction at 3 µM falls from 24 to 22.4.

Going from COC(C)(C)CNC(=O)c1ccc2c(c1)nc(Nc1nc3ccc(Cl)cc3s1)n2C [Example 207, 2-(6-Chloro-benzothiazol-2-ylamino)-1-methyl-1H-benzoimidazole-5-carboxylic acid (2-methoxy-2-methyl-propyl)-amide] to CO[C@H]1CCCN(C(=O)CNC(=O)c2ccc3c(c2)nc(Nc2nc4ccc(Cl)cc4s2)n3C)C1 [Example 444, 2-(6-Chloro-benzothiazol-2-ylamino)-1-methyl-1H-benzoimidazole-5-carboxylic acid [2-((S)-3-methoxy-piperidin-1-yl)-2-oxo-ethyl]-amide], the fold induction at 3 µM rises from 11.8 to 32.

Same assay, conditions: Homo sapiens, fold change above DMSO treated cells, 5 μM compound, 16 h

First: Cn1c(Nc2nc3ccc(OC(F)(F)F)cc3s2)nc2cc(C(=O)N[C@@H]3C[C@H](CO)[C@@H](O)[C@H]3O)ccc21 [Example 282, 1-Methyl-2-(6-trifluoromethoxy-benzothiazol-2-ylamino)-1H-benzoimidazole-5-carboxylic acid ((1R,2S,3R,4R)-2,3-dihydroxy-4-hydroxymethyl-cyclopentyl)-amide]
Second: Cn1c(Nc2nc3ccc(OC(F)(F)F)cc3s2)nc2cc(C(=O)NCC(C)(C)CO)ccc21 [Example 217, 1-Methyl-2-(6-trifluoromethoxy-benzothiazol-2-ylamino)-1H-benzoimidazole-5-carboxylic acid (3-hydroxy-2,2-dimethyl-propyl)-amide]
The fold induction at 5 µM of the first is higher: 51.7 for the first, 20.7 for the second.

First: Cn1c(Nc2nc3ccc(OC(F)(F)F)cc3s2)nc2cc(C(=O)NCCN3CCNC3=O)ccc21 [Example 330, 1-Methyl-2-(6-trifluoromethoxy-benzothiazol-2-ylamino)-1H-benzoimidazole-5-carboxylic acid [2-(2-oxo-imidazolidin-1-yl)-ethyl]-amide]
Second: Cn1c(Nc2nc3ccc(OC(F)(F)F)cc3s2)nc2cc(C(=O)NCCOCCC#N)ccc21 [Example 265, 1-Methyl-2-(6-trifluoromethoxy-benzothiazol-2-ylamino)-1H-benzoimidazole-5-carboxylic acid [2-(2-cyano-ethoxy)-ethyl]-amide]
The fold induction at 5 µM of the first is lower: 37.7 for the first, 55 for the second.

First: CCN(CC)C(=O)CNC(=O)c1ccc2c(c1)nc(Nc1nc3ccc(OC(F)(F)F)cc3s1)n2C [Example 140, 1-Methyl-2-(6-trifluoromethoxy-benzothiazol-2-ylamino)-1H-benzimidazole-5-carboxylic acid diethylcarbamoylmethyl-amide]
Second: COC(=O)CNC(=O)c1ccc2c(c1)nc(Nc1nc3ccc(OC(F)(F)F)cc3s1)n2C [Example 79, {[1-Methyl-2-(6-trifluoromethoxy-benzothiazol-2-ylamino)-1H-benzoimidazole-5-carbonyl]-amino}-acetic acid methyl ester]
The fold induction at 5 µM of the first is higher: 19.3 for the first, 17.6 for the second.

First: COC(=O)c1ccc2c(c1)nc(Nc1nc3ccc(SC(F)(F)F)cc3s1)n2C [Example 132, 1-Methyl-2-(6-trifluoromethylsulfanyl-benzothiazol-2-ylamino)-1H-benzoimidazole-5-carboxylic acid methyl ester]
Second: Cn1c(Nc2nc3ccc(OC(F)(F)F)cc3s2)nc2cc(C(=O)NC3CCCNC3)ccc21 (stereo not shown) [Example 95, 1-Methyl-2-(6-trifluoromethoxy-benzothiazol-2-ylamino)-1H-benzoimidazole-5-carboxylic acid piperidin-3-ylamide hydrochloride]
The fold induction at 5 µM of the first is lower: 5.8 for the first, 11.2 for the second.

Going from CN(C)C(=O)[C@H]1CC[C@H](NC(=O)c2ccc3c(c2)nc(Nc2nc4ccc(Cl)cc4s2)n3C)CC1 [Example 379, 2-(6-Chloro-benzothiazol-2-ylamino)-1-methyl-1H-benzoimidazole-5-carboxylic acid (4-trans-dimethylcarbamoyl-cyclohexyl)-amide] to CN1CC[C@H](NC(=O)c2ccc3c(c2)nc(Nc2nc4ccc(Cl)cc4s2)n3C)C1 [Example 317, 2-(6-Chloro-benzothiazol-2-ylamino)-1-methyl-1H-benzoimidazole-5-carboxylic acid ((S)-1-methyl-pyrrolidin-3-yl)amide], the fold induction at 5 µM falls from 21.7 to 16.3.

First: CCn1c(Nc2nc3ccc(C(F)(F)F)cc3s2)nc2cc(C(=O)NCCOC)ccc21 [Example 182, 1-Ethyl-2-(6-trifluoromethyl-benzothiazol-2-ylamino)-1H-benzoimidazole-5-carboxylic acid (2-methoxy-ethyl)-amide]
Second: CC(=O)NCCOCCNC(=O)c1ccc2c(c1)nc(Nc1nc3ccc(OC(F)(F)F)cc3s1)n2C [Example 275, 1-Methyl-2-(6-trifluoromethoxy-benzothiazol-2-ylamino)-1H-benzoimidazole-5-carboxylic acid [2-(2-acetylamino-ethoxy)-ethyl]-amide]
The fold induction at 5 µM of the first is lower: 13 for the first, 77.4 for the second.

First: COCCNC(=O)c1cc2nc(Nc3nc4ccc(OC(F)(F)F)cc4s3)n(C)c2cc1OC [Example 67, 6-Methoxy-1-methyl-2-(6-trifluoromethoxy-benzothiazol-2-ylamino)-1H-benzoimidazole-5-carboxylic acid (2-methoxy-ethyl)-amide]
Second: CN(C)CC1CCN(C(=O)CNC(=O)c2ccc3c(c2)nc(Nc2nc4ccc(Cl)cc4s2)n3C)CC1 [Example 459, 2-(6-Chloro-benzothiazol-2-ylamino)-1-methyl-1H-benzoimidazole-5-carboxylic acid [2-(4-dimethylaminomethyl-piperidin-1-yl)-2-oxo-ethyl]-amide]
The fold induction at 5 µM of the first is lower: 18.7 for the first, 42 for the second.
